Bounds are passed on as bounds.

Turning to `O=c1ccc(S(=O)(=O)c2ccc(Cl)c(Cl)c2)n[nH]1` [Example 4D, 6-(3,4-Dichloro-benzenesulfonyl)-2H-pyridazin-3-one], the melting point fell in the range of 166 to 168 °C. In the case of `O=c1ccc(S(=O)(=O)c2cccc(Br)c2)n[nH]1` [Example 4I, 6-(3-Bromo-benzenesulfonyl)-2H-pyridazin-3-one], the melting point is greater than 220 °C. `Cc1cc(Cl)cc(S(=O)(=O)c2ccc(=O)[nH]n2)c1` [Example 4M, 6-(3-Chloro-5-methyl-benzenesulfonyl)-2H-pyridazin-3-one] returned a melting point greater than 250 °C.

As to `O=c1ccc(S(=O)(=O)c2c(F)cc(F)cc2Cl)n[nH]1` [Example 4N, 6-(2-Chloro-4,6-difluoro-benzenesulfonyl)-2H-pyridazin-3-one], the melting point is greater than 250 °C.

By melting point is commonly meant the temperature, or range, at which the solid turns liquid.

The record behind these values is patent publication US6730674B2, “Sulfonyl pyridazinone compounds useful as aldose reductase inhibitors” (Pfizer Inc, priority 2001, dated 2004).
